Source: patent US9708251B2, “Unsaturated fatty alcohol alkoxylates from natural oil metathesis” (Stepan Company, priority 2012, dated 2017)

How the values were obtained:
Format in all cases: physicochemical
[1] = Emulsion stability testing of nonionic emulsifiers, aromatic solvent series; set-up: key to 24 h separation, appearance / 1 h separation, appearance / 1 h separation, amount: C = creamy; CO = creamy oil; O = oil; GC = gritty cream; NS = no separation; OC = oily cream; key to Spon. (spontaneity): G = good; F = fair; P = poor
Description: (§1) Nonionic samples contain a low amount of water (<1%) and are prepared as emulsifiable concentrates with three pesticides using two different solvent systems. In the aromatic solvent series, the nonionic sample replaces Toximul® 8240 (castor oil ethoxylate, 36 POE, Stepan), and in the Hallcomid™ (N,N-dimethylcaprylamide/N,N-dimethylcapramide, Stepan) solvent series, the nonionic sample replaces Ninex® MT-630F.
Sample preparation: Ninate® 60E (calcium alkylbenzenesulfonate, Stepan) and the test sample are stirred until homogeneous. […] Controls 1-3 are made by using Toximul 8240 in the amounts indicated instead of the nonionic sample.
Formulations: • 1. Bifenthrin, 240 g/L (2.99 g), Aromatic 100 (ExxonMobil, 8.05 g), Ninate 60E (0.38 g), and nonionic sample or Toximul 8240 (0.58 g). • 2. 2,4-D ester, 480 g/L (8.90 g), Exxsol® D-110 (ExxonMobil, 2.50 g), Ninate 60E (0.36 g), and nonionic sample or Toximul 8240 (0.24 g). • 3. Tebuconazole, 360 g/L (4.45 g), N-methyl-2-pyrrolidone (6.35 g), Ninate 60E (0.48 g), nonionic sample or Toximul 8240 (0.72 g).
(§2) Emulsion Stability Testing
(§3) A Mohr pipette is used to feed pesticide/surfactant concentrates to each cylinder.

[2] = Emulsion stability testing of nonionic emulsifiers, Hallcomid solvent series; set-up: key to 24 h separation, appearance / 1 h separation, appearance / 1 h separation, amount: C = creamy; CO = creamy oil; O = oil; GC = gritty cream; NS = no separation; OC = oily cream; key to Spon. (spontaneity): G = good; F = fair; P = poor
Description: as §1
(§4) Hallcomid Solvent Series.
(§5) Sample preparation: The surfactants are combined and stirred until homogeneous, with the nonionic sample melted if needed prior to combination. Controls 1-3 are made by using Ninex MT-630F in the amounts indicated instead of the nonionic sample.
as §2, §3

[3] = Surfactant phase behavior study (cross-polarized microscopy); conditions: room temperature, in deionized water
Description: Phase behavior is observed using an Olympus BH-2 cross-polarized microscope at 100-400× and room temperature (20° C. to 22° C.). The inventive monounsaturated alcohol ethoxylates are compared with their saturated analogs.
Samples are prepared by diluting the most concentrated product gradually with deionized water. When the surfactant concentration approaches a phase transition, the concentration is varied at 2-4% intervals to estimate the phase boundary. The actives level reported in Table 4 for each phase boundary is within ±5% of the true boundary.
Samples are loaded between a microscope slide and cover glass and are allowed to equilibrate before observation. Microscopic texture is analyzed and used to determine the phase. For some samples, an AR 2000 rheometer (TA Instruments) is used to measure viscosity at 25° C. to further verify phase behavior.

[4] = Emulsion stability testing of nonionic emulsifiers, Hallcomid solvent series; set-up: key: C = creamy; CO = creamy oil; O = oil; GC = gritty cream; NS = no separation; OC = oily cream
Description: as §1, §4, §5, §2, §3

[5] = 2,4-D ester 480 g/L in Exxsol D-110, 34 ppm water
[6] = 2,4-D ester 480 g/L in Exxsol D-110, 1000 ppm water
[7] = Bifenthrin 240 g/L in Aromatic 100, 34 ppm water
[8] = Bifenthrin 240 g/L in Aromatic 100, 1000 ppm water
[9] = Tebuconazole 360 g/L in N-methyl-2-pyrrolidone, 34 ppm water
[10] = Tebuconazole 360 g/L in N-methyl-2-pyrrolidone, 1000 ppm water
[11] = 2,4-D diester 480 g/L in Hallcomid M-8-10, 34 ppm water
[12] = 2,4-D diester 480 g/L in Hallcomid M-8-10, 1000 ppm water
[13] = Bifenthrin 240 g/L in Hallcomid M-8-10, 34 ppm water
[14] = Bifenthrin 240 g/L in Hallcomid M-8-10, 1000 ppm water
[15] = Tebuconazole 360 g/L in Hallcomid M-8-10, 34 ppm water
[16] = Tebuconazole 360 g/L in Hallcomid M-8-10, 1000 ppm water

1 h separation, amount [1, 5]: 2.6 mL
1 h separation, appearance [1, 5]: C
24 h separation, amount [1, 5]: 5 mL
24 h separation, appearance [1, 5]: C
Spon. (spontaneity) [1, 5]: P
1 h separation, amount [1, 6]: 2.8 mL
1 h separation, appearance [1, 6]: C
24 h separation, amount [1, 6]: 3.9 mL
24 h separation, appearance [1, 6]: C
Spon. (spontaneity) [1, 6]: P
1 h separation, amount [1, 7]: 7 mL
1 h separation, appearance [1, 7]: C
24 h separation, amount [1, 7]: 7 mL
24 h separation, appearance [1, 7]: C
Spon. (spontaneity) [1, 7]: P
1 h separation, amount [1, 8]: 6 mL
1 h separation, appearance [1, 8]: C
24 h separation, amount [1, 8]: 4.8 mL
24 h separation, appearance [1, 8]: CO
Spon. (spontaneity) [1, 8]: P
1 h separation, amount [1, 9]: 1 mL
1 h separation, appearance [1, 9]: C
24 h separation, amount [1, 9]: 3.5 mL
24 h separation, appearance [1, 9]: CO
Spon. (spontaneity) [1, 9]: P
1 h separation, amount [1, 10]: 1.2 mL
1 h separation, appearance [1, 10]: C
24 h separation, amount [1, 10]: 2 mL
24 h separation, appearance [1, 10]: CO
Spon. (spontaneity) [1, 10]: P
1 h separation, amount [2, 11]: 4.4 mL
1 h separation, appearance [2, 11]: C
24 h separation, amount [2, 11]: 8.5 mL
24 h separation, appearance [2, 11]: C
Spon. (spontaneity) [2, 11]: P
1 h separation, amount [2, 12]: 4.8 mL
1 h separation, appearance [2, 12]: C
24 h separation, amount [2, 12]: 7.6 mL
24 h separation, appearance [2, 12]: C
Spon. (spontaneity) [2, 12]: P
1 h separation, amount [2, 13]: NS
Spon. (spontaneity) [2, 13]: G
1 h separation, amount [2, 14]: 5.5 mL
1 h separation, appearance [2, 14]: CO
24 h separation, amount [2, 14]: 5.4 mL
24 h separation, appearance [2, 14]: O
Spon. (spontaneity) [2, 14]: F
1 h separation, amount [2, 15]: 1 mL
1 h separation, appearance [2, 15]: C
Spon. (spontaneity) [2, 15]: F
1 h separation, amount [2, 16]: 2 mL
1 h separation, appearance [2, 16]: C
24 h separation, amount [2, 16]: 4.7 mL
24 h separation, appearance [2, 16]: C
Spon. (spontaneity) [2, 16]: F
Paste phase region [3]: 93-100 % Actives Level
24 h separation, amount [4, 13]: NS
24 h separation, amount [4, 15]: NS
SMILES: C=CCCCCCCCCOCCOCCOCCOCCOCCOCCOCCOCCOCCOCCOCCOCCOCCOCCOCCO [A10-16]
